Numbered stars: 1 amine (or outer) side, 2 acyl side, 3 side chain; on linkers, the order of the positions; unused ones are H or OH. Square brackets hold non-standard residues; d marks the D form. Peptide text beside a SMILES is read from it. * marks the point of attachment. X2 = CC(C(=O)[*:2])n1cc(C(CCCNC(=N)N)N[*:1])nn1; X1 = C[C@@H](O)[C@H](NN(CCCNC(N)N)CN*)C(N)=O; NH(4-amidinobenzyl) = N=C(N)c1ccc(CN*)cc1; PhAc = O=C(Cc1ccccc1)*; X5 = N=C(N)NC/C=C/CN*
Assays:
[1] = Cytotoxicity against chinese hamster CHO-DG44 cells assessed as cell viability at 100 uM and measured after 2 hrs by WST-1 method; type: toxicity, cell-based, Cricetulus griseus; details: read-out: Activity
[2] = Cytotoxicity against human HT-1080 cells assessed as cell viability at 100 uM and measured after 2 hrs by WST-1 method; type: toxicity, cell-based; details: read-out: Activity
[3] = molecular target: T1, Furin (Homo sapiens, UniProt P09958); assay: Inhibition of Recombinant vaccinia-expressed furin (unknown origin) using Pyr-RTKR-MCA as substrate and measured by fluorescence based assay
T1 sequence (P09958 whole entry): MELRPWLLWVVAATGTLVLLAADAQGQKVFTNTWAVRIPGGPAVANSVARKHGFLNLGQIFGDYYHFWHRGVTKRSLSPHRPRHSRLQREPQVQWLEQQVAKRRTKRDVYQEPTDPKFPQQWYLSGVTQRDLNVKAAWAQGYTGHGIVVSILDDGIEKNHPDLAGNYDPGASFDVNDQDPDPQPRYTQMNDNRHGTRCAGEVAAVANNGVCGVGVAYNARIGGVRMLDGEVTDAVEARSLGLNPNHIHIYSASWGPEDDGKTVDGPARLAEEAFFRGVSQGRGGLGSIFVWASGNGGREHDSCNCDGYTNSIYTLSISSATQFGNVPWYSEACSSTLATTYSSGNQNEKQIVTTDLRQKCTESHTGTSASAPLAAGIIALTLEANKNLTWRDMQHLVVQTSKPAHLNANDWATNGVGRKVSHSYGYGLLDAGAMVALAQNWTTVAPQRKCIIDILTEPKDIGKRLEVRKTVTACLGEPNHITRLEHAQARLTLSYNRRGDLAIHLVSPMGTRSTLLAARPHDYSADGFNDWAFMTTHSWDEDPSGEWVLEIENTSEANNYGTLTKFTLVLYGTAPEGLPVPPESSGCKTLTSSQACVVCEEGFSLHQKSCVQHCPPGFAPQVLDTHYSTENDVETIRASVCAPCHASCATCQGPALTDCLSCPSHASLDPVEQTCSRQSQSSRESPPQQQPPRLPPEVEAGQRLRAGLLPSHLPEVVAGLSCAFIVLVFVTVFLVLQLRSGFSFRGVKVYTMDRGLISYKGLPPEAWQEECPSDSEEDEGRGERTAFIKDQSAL

[4] = Inhibition of migration of human HT-1080 cells at 100 uM measured by calcein AM/ethidium homodimer (EthD-1) staining method; type: functional
[5] = test system: RAW264.7; assay: Protective activity against Anthrax toxin-induced cytotoxicity in mouse RAW264.7 cells measured by WST-1 method; type: functional; details: dose 100 µM
[6] = molecular target: T1, Furin; assay: Inhibition of soluble recombinant human furin using pyroGlu-Arg-Thr-Lys-Arg-AMC as substrate and measured by fluorescence assay
[7] = molecular target: T1, Furin; assay: Inhibition of human furin using Pyr-RTKR-AMC as substrate preincubated for 30 mins followed by substrate addition and measured by fluorescence based assay
[8] = test system: Mus musculus; assay: Antifibrotic activity against bleomycin-induced mouse lung fibrosis model assessed as inhibition of hydroxyproline content in lung at 30 mg/kg, po administered once daily; type: functional
[9] = molecular target: T1, Furin; assay: Inhibition of furin in human U2OS cells measured after 24 hrs by fluorescence assay; type: cell-based
[10] = test system: Mus musculus; assay: Antifibrotic activity against bleomycin-induced mouse lung fibrosis model assessed as inhibition of TGF-beta secretion in lung at 30 mg/kg, po administered once daily; type: functional
[11] = molecular target: T1, Furin; assay: Inhibition of furin (unknown origin)
[12] = Stability in mouse plasma assessed as half-life; type: ADME, cell-free
[13] = test system: Vero; assay: Protective activity against Escherichia coli O157:H7 Shiga toxin-induced cytotoxicity in monkey Vero cells measured by LDH assay; type: functional, cell-based; details: Chlorocebus sabaeus
[14] = Stability in mouse plasma assessed as compound remaining measured after 24 hrs; type: ADME, cell-free; details: read-out: Stability
[15] = Protective activity against Pseudomonas aeruginosa exotoxin A-induced cytotoxicity in chinese hamster CHO-DG44 cells measured by WST-1 method; type: functional, Cricetulus griseus; details: dose 100 µM
[16] = molecular target: T1, Furin; assay: Inhibition of recombinant human furin using Phac-Arg-Val-Arg-Arg-AMC as substrate incubated for 30 mins and measured by microplate reader method
[17] = test system: Mus musculus; assay: Antifibrotic activity against bleomycin-induced mouse lung fibrosis model assessed as inhibition of hydroxyproline content in lung at 10 mg/kg, po administered once daily; type: functional
[18] = test system: Mus musculus; assay: Antifibrotic activity against bleomycin-induced mouse lung fibrosis model assessed as inhibition of TGF-beta secretion in lung at 10 mg/kg, po administered once daily; type: functional

N=C(N)Nc1ccc(OCCCOc2ccc(NC(=N)N)cc2)cc1
viability at 2 h, 100 µM [1]: 60% | viability at 2 h, 100 µM [2]: 60% | Ki [3]: 8300 nM | inhibition at 100 µM [4]: < 40%

N=C(N)Nc1ccc(Oc2cccc(Oc3ccc(NC(=N)N)cc3)c2)cc1
viability at 2 h, 100 µM [1]: > 20% | viability at 2 h, 100 µM [2]: > 20% | Ki [3]: 1500 nM | inhibition at 100 µM [4]: 90% | Activity [5]: 70%

N=C(N)N/N=C/c1cccc(OCCCOc2cccc(/C=N/NC(=N)N)c2)c1
Ki [6]: 1700 nM

CC(=O)N[C@@H](CCCNC(=N)N)C(=O)N[C@H](C(=O)N[C@@H](Cc1ccc(N=C(N)N)cc1)C(=O)NCc1ccc(C(=N)N)cc1F)C(C)C
Ki [7]: 9 nM

COC(=O)NCC1CCN(Cc2cc(Oc3cnc(N4CCN(CCC(=O)O)CC4)nc3)nc(-c3cc(Cl)cc(Cl)c3)c2)CC1
inhibition in vivo at 30 mg/kg [8]: -14% | pXC50 [9]: 7.5 | inhibition in vivo at 30 mg/kg [10]: 7%

N=C(N)N/N=C/c1ccc(Oc2ccc(Oc3ccc(/C=N/NC(=N)N)cc3)cc2)cc1
Ki [6]: 740 nM

O=C(O)CC1CCN(Cc2cc(Oc3cnc(N4CCN5CCC4C5)nc3)nc(-c3cc(Cl)cc(Cl)c3)c2)CC1 (stereo not drawn)
inhibition in vivo at 30 mg/kg [8]: 34% | pXC50 [9]: 7.7 | inhibition in vivo at 30 mg/kg [10]: 36%

CC(=O)NN(CCCNC(=N)N)CC(=O)N[C@@H](C)C(=O)N[C@@H](CCCNC(=N)N)C(=O)N[C@@H](CCCNC(=N)N)C(=O)N[C@@H](CCCNC(=N)N)C(=O)N[C@@H](CCCCN)C(=O)N[C@@H](CCCCN)C(=O)NN(CCCNC(=N)N)CC(=O)N[C@H](C(N)=O)[C@@H](C)O
Ki [11]: 46 nM | half-life [12]: 161 min | IC50 [13]: 20.8 µM | remaining at 24 h [14]: 45%

CN1CCCN(c2ncc(Oc3cc(CN4CCC(CC(=O)O)CC4)cc(-c4cc(Cl)cc(Cl)c4)n3)cn2)CC1
inhibition in vivo at 30 mg/kg [8]: 36% | pXC50 [9]: 8.2 | inhibition in vivo at 30 mg/kg [10]: 34%

N=C(N)Nc1ccc(OC2CCCC(Oc3ccc(NC(=N)N)cc3NC(=N)N)C2)c(NC(=N)N)c1 (stereo not drawn)
Activity [15]: 30% | viability at 2 h, 100 µM [1]: > 90% | viability at 2 h, 100 µM [2]: > 90% | Ki [3]: 1200 nM | inhibition at 100 µM [4]: < 40% | Activity [5]: 70%

N=C(N)Nc1ccc(OCCCOc2ccc(NC(=N)N)cc2NC(=N)N)c(NC(=N)N)c1
Activity [15]: <30% | viability at 2 h, 100 µM [1]: > 90% | viability at 2 h, 100 µM [2]: > 90% | Ki [3]: 2700 nM | inhibition at 100 µM [4]: < 40% | Activity [5]: 50%

CC1C(=O)N[C@@H](CCCNC(=N)N)C(=O)N[C@@H](C)C(=O)N[C@@H](CCCNC(=N)N)C(=O)N[C@@H](CCCNC(=N)N)C(=O)N[C@@H](CCCNC(=N)N)C(=O)N[C@H](C(=O)N[C@@H](CCCCN)C(=O)N[C@@H](CCCNC(=N)N)C(=O)N[C@H](C(N)=O)[C@@H](C)O)CCCCNC(CCCNC(=N)N)c2cn1nn2 (stereo partly drawn)
Ki [11]: 16.7 nM | half-life [12]: 42 min | remaining at 24 h [14]: 28%

CC(C)(C)[C@H](NC(=O)CCCCNC(=N)N)C(=O)N[C@@H](CCCNC(=N)N)C(=O)NCc1ccc(C(=N)N)cc1
Ki [16]: 1.26 nM

CC(=O)N[C@@H](CCCNC(=N)N)C(=O)N[C@@H](C)C(=O)N[C@@H](CCCNC(=N)N)C(=O)N[C@@H](CCCNC(=N)N)C(=O)N[C@@H](CCCNC(=N)N)C(=O)N[C@@H](CCCCN)C(=O)N[C@@H](CCCCN)C(=O)NCN(CCCNC(N)N)N[C@H](C(N)=O)[C@@H](C)O (Ac-RARRRKK-X1)
Ki [11]: 28 nM | half-life [12]: 135 min | IC50 [13]: 314 µM | remaining at 24 h [14]: 57%

CC(C(=O)N[C@@H](C)C(=O)N[C@@H](CCCNC(=N)N)C(=O)N[C@@H](CCCNC(=N)N)C(=O)N[C@@H](CCCNC(=N)N)C(=O)N[C@@H](CCCCN)C(=O)N[C@@H](CCCCN)C(=O)N[C@@H](CCCNC(=N)N)C(=O)N[C@H](C(N)=O)[C@@H](C)O)n1cc(C(CCCNC(=N)N)NC(=O)[C@@H](N)CCCNC(=N)N)nn1 (stereo partly drawn) (H-R[X2]ARRRKKRT-NH2)
Ki [11]: 13 nM | half-life [12]: 74.2 min | remaining at 24 h [14]: 20%

N=C(N)Nc1ccc(OC2CCCC(Oc3ccc(NC(=N)N)cc3)C2)cc1 (stereo not drawn)
viability at 2 h, 100 µM [1]: 70% | viability at 2 h, 100 µM [2]: 70% | Ki [3]: 5500 nM | inhibition at 100 µM [4]: 40% | Activity [5]: 30%

CC(C)[C@H](NC(=O)[C@H](CCCNC(=N)N)NC(=O)[C@H](CCCNC(=N)N)NC(=O)[C@H](CCCNC(=N)N)NC(=O)Cc1ccccc1)C(=O)N[C@@H](CCCNC(=N)N)C(=O)NCc1ccc(C(=N)N)cc1 (PhAc-RRRVR-{NH(4-amidinobenzyl)})
Ki [16]: 0.0138 nM

N=C(N)Nc1ccc(O[C@H]2C[C@@H](Oc3ccc(NC(=N)N)cc3NC(=N)N)[C@H](NC(=N)N)C[C@@H]2NC(=N)N)cc1
Activity [15]: >30% | viability at 2 h, 100 µM [1]: > 90% | viability at 2 h, 100 µM [2]: > 90% | Ki [3]: 89 nM | inhibition at 100 µM [4]: 30% | Activity [5]: >80%

CC(=O)N[C@@H](CCCNC(=N)N)C(=O)NN(CCCNC(=N)N)CC(=O)N[C@@H](C)C(=O)N[C@@H](CCCNC(=N)N)C(=O)N[C@@H](CCCNC(=N)N)C(=O)N[C@@H](CCCNC(=N)N)C(=O)N[C@@H](CCCCN)C(=O)N[C@@H](CCCCN)C(=O)N[C@@H](CCCNC(=N)N)C(=O)N[C@H](C(N)=O)[C@@H](C)O
Ki [11]: 12 nM | half-life [12]: 62.4 min | IC50 [13]: > 1000 µM | remaining at 24 h [14]: 29%

CC(C)[C@H](NC(=O)CCCCNC(=N)N)C(=O)N[C@@H](CCCNC(=N)N)C(=O)NCc1ccc(C(=N)N)cc1
Ki [16]: 2.5 nM

CC(=O)N[C@@H](CCCNC(=N)N)C(=O)N[C@@H](C)C(=O)N[C@@H](CCCNC(=N)N)C(=O)N[C@@H](CCCNC(=N)N)C(=O)N[C@@H](CCCNC(=N)N)C(=O)N[C@@H](CCCCN)C(=O)N[C@@H](CCCCN)C(=O)NCc1ccc(C(=N)N)cc1 (Ac-RARRRKK-{NH(4-amidinobenzyl)})
Ki [11]: 3.8 nM | half-life [12]: 546 min | IC50 [13]: > 1000 µM

CN1CCN(c2cnc(Oc3cc(CN4CCC(CC(=O)O)CC4)cc(-c4cc(Cl)cc(Cl)c4)n3)cn2)CC1
inhibition in vivo at 10 mg/kg [17]: 4% | inhibition in vivo at 10 mg/kg [18]: 22% | pXC50 [9]: 7.3

C/C(=N\NC(=N)N)c1ccc(OCCCOc2ccc(/C(C)=N/NC(=N)N)cc2)cc1
Ki [6]: 1430 nM

CC(=O)NCC1CCN(Cc2cc(Oc3ccc(N4CCN(CCS(C)(=O)=O)CC4)nc3)nc(-c3cc(Cl)cc(Cl)c3)c2)CC1
inhibition in vivo at 30 mg/kg [8]: 45% | pXC50 [9]: 7.6 | inhibition in vivo at 30 mg/kg [10]: 41%

N=C(N)N/N=C/c1ccc(N2CCN(c3ccc(/C=N/NC(=N)N)cc3)CC2)cc1
Ki [6]: 1540 nM

C/C(=N\NC(=N)N)c1ccc(NC(=O)CCCCC(=O)Nc2ccc(/C(C)=N/NC(=N)N)cc2)cc1
Ki [6]: 1210 nM

CN1CCCN(c2cnc(Oc3cc(CN4CCC(CC(=O)O)CC4)cc(-c4cc(Cl)cc(Cl)c4)n3)cn2)CC1
inhibition in vivo at 30 mg/kg [8]: 21% | pXC50 [9]: 7.7 | inhibition in vivo at 30 mg/kg [10]: 26%

N=C(N)Nc1ccc(Oc2cccc(Oc3ccc(NC(=N)N)cc3NC(=N)N)c2)c(NC(=N)N)c1
Activity [15]: <40% | viability at 2 h, 100 µM [1]: > 60% | viability at 2 h, 100 µM [2]: > 60% | Ki [3]: 400 nM | inhibition at 100 µM [4]: < 20% | Activity [5]: 100%

CC(C)(C)[C@H](NC(=O)[C@H](CCCNC(=N)N)NC(=O)Cc1ccc(CNC(=N)N)cc1)C(=O)N[C@@H](CCCONC(=N)N)C(=O)NCc1ccc(C(=N)N)cc1
Ki [16]: 0.0131 nM

CC(=O)N[C@@H](CCCNC(=N)N)C(=O)N[C@@H](C)C(=O)N[C@@H](CCCNC(=N)N)C(=O)N[C@@H](CCCNC(=N)N)C(=O)N[C@@H](CCCNC(=N)N)C(=O)N[C@@H](CCCCN)C(=O)N[C@@H](CCCCN)C(=O)NC/C=C/CNC(=N)N (Ac-RARRRKK-X5)
IC50 [13]: 71 µM
